Assay results taken from paper PMC12298648, “An Evaluation of the Cytotoxicity and Safety Profile of Usnic Acid for a Broad Panel of Human Cancers and Normal Cells with Respect to Its Enantiospecificity” (Molecules, 2025).
Converted amounts (≈) assume the structure as drawn. Where two headings read alike, the source gives them in different places.

Experiments:
U87MG = test: MTT viability assay, glioblastoma U87MG cells; format: cell-based, human; settings: 24 h
From the text: (§1) Cell lines of different origins were used in the study and grouped as follows: prostate panel (human prostate carcinomas: DU145, derived from metastatic site: brain; grade IV PC3, derived from metastatic site: bone; LNCaP, derived from the metastatic site: lymph node; prostate epithelial, PNT2), colon panel (colorectal adenocarcinomas: HT29, originating from a primary tumor; Duke’s type C DLD-1, with the potential to lymph node metastasis; highly metastatic HCT116; colon epithelial cells CCD 841 CoN), thyroid panel (follicular thyroid carcinoma FTC133, anaplastic thyroid carcinoma 8505C, papillary thyroid carcinoma TPC-1, normal thyroid follicular epithelial Nthy-ori 3–1), breast panel (ER-positive breast adenocarcinoma MCF7, ER-negative breast adenocarcinoma MDA-MB-231, breast epithelial MCF10A), brain panel (neuroblastoma SH-SY5Y, glioblastoma U-87 MG, murine astrocytes C8D1A). All cell lines were purchased from Merck (Darmstadt, Germany).
(§2) Cells were grown under standard conditions (37 °C, 5% CO2) and culture media (DMEM/F12 for PNT2, PC3, FTC133, 8505 C, MDA-MB-231, TPC-1; DMEM Low Glucose for DU145; DMEM High Glucose for HCT116, DLD-1, SH-SY5Y, U87MG, C8D1A; MEM with NEAA for MCF7; MEM for CCD 841 CoN; McCoy’s for HT29; RPMI1640 with sodium pyruvate for LNCaP; DMEM/F12 with 20 ng/mL epidermal growth factor (EGF), 10 μg/mL insulin, 0.5 μg/mL hydrocortisone, 100 ng/mL cholera toxin) for MCF10A), supplemented with 10% fetal bovine serum (FBS) or 5% donor horse serum for MCF10A, and 1% antibiotics solution (10,000 U penicillin and 10 mg streptomycin/mL). The tested substances were prepared as 10 mg/mL stock solutions in DMSO and further diluted in the culture media to the working concentrations. Cells were treated with UA enantiomers at the concentration range of 0–50 µg/mL. The influence of DMSO on cell viability was also examined, with the final concentration […], and no toxic effect was noted.
(§3) The cells were seeded onto 96-well plates at a density of 1.5 × 10^4 cells/well. After 24 h UA enantiomers were added. Cell viability was determined after 24, 48, and 72 h by the MTT assay, as described previously. Doxorubicin was used as a reference cytostatic drug. All analyses were performed in triplicate; cell viability was expressed as % of control, untreated cells (mean ± SD), and IC50 values (concentration at which cell viability is inhibited by 50%), if possible.

LNCaP = test: MTT viability assay, LNCaP prostate cancer cells; format: cell-based, human; settings: for Cell viability: 24 h; for IC50: Homo sapiens
From the text: as §1, §2, §3

PNT2 = test: MTT viability assay, normal prostate epithelial cells; format: cell-based, human; settings: for IC50: Homo sapiens; for Cell viability: PNT2, 24 h
From the text: as §1, §2, §3

glioblastoma U251 cells = test system: glioblastoma U251 cells; set-up: method as in PMID 18558490; settings: U251, 72 h, cited from earlier work
MCF7 cells = test system: MCF7 cells; set-up: method as in not printed ('another' study); settings: MCF7, 72 h, ref not given ('another' study), cited from earlier work
8505C = test: MTT viability assay, 8505C anaplastic thyroid carcinoma cells; format: cell-based, human; settings: for Cell viability: 24 h; for IC50: Homo sapiens
From the text: as §1, §2, §3

MCF10A = test: MTT viability assay, normal breast epithelial cells; format: cell-based, human; settings: for IC50: Homo sapiens, MCF-10A, MCF10A normal cells; for Cell viability: MCF10A, 24 h
From the text: as §1, §2, §3

DU145 cells = settings: DU145, 72 h, cited from earlier work
HepG2 cells = test system: HepG2 cells; set-up: method as in PMID 40368021; settings: cited from earlier work
HT29 = test: MTT viability assay, HT29 colon cancer cells; format: cell-based, human; settings: for Cell viability: HT29, 24 h; for IC50: Homo sapiens, HT-29
From the text: as §1, §2, §3

MCF7 = test: MTT viability assay, MCF7 breast cancer cells; format: cell-based, human; settings: for IC50: Homo sapiens; for Cell viability: MCF7, 24 h
From the text: as §1, §2, §3
The selectivity index (SI) was calculated, if possible, by dividing the IC50 value obtained for non-cancerous cells line by the IC50 values obtained for appropriate cancer cell line, as described previously. […] The values above 3 indicate good selectivity.

[1] = recalculated from µM by the authors

## CC(=O)C1=C(O)C=C2Oc3c(C(C)=O)c(O)c(C)c(O)c3[C@]2(C)C1=O [UA(−), (−)-usnic acid]
U87MG; 2.5 µg/mL
  Cell viability: 102.34 % of control
U87MG; 5 µg/mL
  Cell viability: 102.19 % of control
U87MG; 10 µg/mL
  Cell viability: 101.69 % of control
U87MG; 20 µg/mL
  Cell viability: 101.59 % of control
U87MG; 30 µg/mL
  Cell viability: 111.54 % of control
U87MG; 40 µg/mL
  Cell viability: 106.02 % of control
U87MG; 50 µg/mL
  Cell viability: 98.56 % of control
LNCaP; 2.5 µg/mL
  Cell viability: 100.45 % of control
LNCaP; 5 µg/mL
  Cell viability: 98.18 % of control
LNCaP; 10 µg/mL
  Cell viability: 88.48 % of control
LNCaP; 20 µg/mL
  Cell viability: 85.30 % of control
LNCaP; 30 µg/mL
  Cell viability: 81.97 % of control
LNCaP; 40 µg/mL
  Cell viability: 79.09 % of control
LNCaP; 50 µg/mL
  Cell viability: 89.39 % of control
LNCaP; 48 h
  IC50: > 50 µg/mL
LNCaP; 72 h
  IC50: > 50 µg/mL
PNT2; PNT2, 48 h
  IC50: 35.4 µg/mL (≈ 103 µM)
PNT2; PNT2, 72 h
  IC50: 27.8 µg/mL (≈ 80.7 µM)
PNT2; 2.5 µg/mL
  Cell viability: 103.40 % of control
PNT2; 5 µg/mL
  Cell viability: 99.24 % of control
PNT2; 10 µg/mL
  Cell viability: 91.32 % of control
PNT2; 20 µg/mL
  Cell viability: 83.13 % of control
PNT2; 30 µg/mL
  Cell viability: 74.58 % of control
PNT2; 40 µg/mL
  Cell viability: 68.75 % of control
PNT2; 50 µg/mL
  Cell viability: 54.38 % of control
Glioblastoma U251 cells; [1]
  IC50: 6.8 µg/mL
Glioblastoma U251 cells; read-out: IC50
  IC50: 19.7 µM
MCF7 cells; [1]
  IC50: 17.8 µg/mL
MCF7 cells; read-out: IC50
  IC50: 51.7 µM
8505C; 2.5 µg/mL
  Cell viability: 105.18 % of control
8505C; 5 µg/mL
  Cell viability: 107.97 % of control
8505C; 10 µg/mL
  Cell viability: 100.80 % of control
8505C; 20 µg/mL
  Cell viability: 100.00 % of control
8505C; 30 µg/mL
  Cell viability: 102.79 % of control
8505C; 40 µg/mL
  Cell viability: 103.98 % of control
8505C; 50 µg/mL
  Cell viability: 94.42 % of control
8505C; 48 h
  IC50: > 50 µg/mL
8505C; 72 h
  IC50: > 50 µg/mL
MCF10A; 48 h
  IC50: > 50 µg/mL
MCF10A; 72 h
  IC50: > 50 µg/mL
MCF10A; 2.5 µg/mL
  Cell viability: 102.83 % of control
MCF10A; 5 µg/mL
  Cell viability: 100.30 % of control
MCF10A; 10 µg/mL
  Cell viability: 101.52 % of control
MCF10A; 20 µg/mL
  Cell viability: 98.59 % of control
MCF10A; 30 µg/mL
  Cell viability: 100.10 % of control
MCF10A; 40 µg/mL
  Cell viability: 103.54 % of control
MCF10A; 50 µg/mL
  Cell viability: 99.39 % of control
DU145 cells; [1]
  IC50: 15.8 µg/mL
DU145 cells; read-out: IC50
  IC50: 45.9 µM
HepG2 cells; HepG2, 48 h
  IC50 (hepatotoxicity): 16.0 µg/mL (≈ 46.5 µM)
HepG2 cells; HepG2, 72 h
  IC50 (hepatotoxicity): 18.3 µg/mL (≈ 53.1 µM)
HT29; 2.5 µg/mL
  Cell viability: 102.45 % of control
HT29; 5 µg/mL
  Cell viability: 90.48 % of control
HT29; 10 µg/mL
  Cell viability: 84.03 % of control
HT29; 20 µg/mL
  Cell viability: 79.62 % of control
HT29; 30 µg/mL
  Cell viability: 74.37 % of control
HT29; 40 µg/mL
  Cell viability: 72.48 % of control
HT29; 50 µg/mL
  Cell viability: 73.95 % of control
HT29; HT29, 48 h
  IC50: > 50 µg/mL
HT29; HT29, 72 h
  IC50: 32.7 µg/mL (≈ 95 µM)
MCF7; MCF7, 48 h
  IC50: > 50 µg/mL
MCF7; MCF7, 72 h
  IC50: 33.4 µg/mL (≈ 97 µM)
MCF7; 2.5 µg/mL
  Cell viability: 124.74 % of control
MCF7; 5 µg/mL
  Cell viability: 113.59 % of control
MCF7; 10 µg/mL
  Cell viability: 110.03 % of control
MCF7; 20 µg/mL
  Cell viability: 106.15 % of control
MCF7; 30 µg/mL
  Cell viability: 109.10 % of control
MCF7; 40 µg/mL
  Cell viability: 106.28 % of control
MCF7; 50 µg/mL
  Cell viability: 91.15 % of control
